Source: patent EP2340832A1, “Morphinan-6-one compounds for the treatment or prevention of neurodegenerative diseases” (Universität Innsbruck, priority 2009, dated 2011)
Read-outs that look alike come from different tables or passages of the source.

Assays:
[1] = system: extracellular ACh concentration in the nucleus accumbens; conditions: for 0AUC120 min (% increase x min) Mean ± SEM: 0 to 120 min; for Increase in ACh release (Peak increase as % of basal output): nucleus accumbens
[2] = target: T1, σ receptors labelled by [^3H](+)-pentazocine (σ1) (Cavia porcellus, UniProt Q60492); experiment: Sigma receptor binding assay, [3H](+)-pentazocine; design: species or system guinea pig
T1 construct: from tissue; host or cells: guinea pig brain membranes
T1 sequence (Q60492 whole entry): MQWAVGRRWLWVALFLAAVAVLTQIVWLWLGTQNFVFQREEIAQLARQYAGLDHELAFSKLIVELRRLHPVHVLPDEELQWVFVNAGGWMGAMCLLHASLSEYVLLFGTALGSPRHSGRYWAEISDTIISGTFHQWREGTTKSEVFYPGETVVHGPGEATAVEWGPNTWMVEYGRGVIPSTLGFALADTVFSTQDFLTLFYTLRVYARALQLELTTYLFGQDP
Description: (§1) Filters were washed three times with 5 ml of ice-cold 10 mM Tris-HCI buffer (pH 8). The bound radioactivity was measured by liquid scintillation counting (Beckman Coulter™ LS6500). […] The values are expressed as the mean ± S.E.M of 2 - 4 independent experiments, each performed in duplicate.

µ opioid receptor [3] = target: T2, µ opioid receptor (Rattus norvegicus, UniProt P33535); experiment: Opioid receptor binding assay, [3H]DAMGO, rat brain membranes; design: Membrane fractions were prepared from Sprague-Dawley rat or guinea pig brains; from tissue; host or cells: Sprague-Dawley rat brain (without cerebella) membranes; species or system Sprague-Dawley rat
T2 sequence (P33535 whole entry): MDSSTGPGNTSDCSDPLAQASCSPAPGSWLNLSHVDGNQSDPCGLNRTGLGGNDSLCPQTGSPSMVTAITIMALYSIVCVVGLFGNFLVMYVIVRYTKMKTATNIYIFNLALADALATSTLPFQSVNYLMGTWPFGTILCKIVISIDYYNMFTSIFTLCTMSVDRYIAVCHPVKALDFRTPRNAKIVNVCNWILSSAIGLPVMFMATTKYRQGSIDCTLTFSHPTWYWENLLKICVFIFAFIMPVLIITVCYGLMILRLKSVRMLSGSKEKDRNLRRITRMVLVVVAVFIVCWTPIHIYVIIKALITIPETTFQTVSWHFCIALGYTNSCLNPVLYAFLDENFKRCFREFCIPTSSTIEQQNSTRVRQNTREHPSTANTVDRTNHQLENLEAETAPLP
Description: (§2) Briefly, brains without cerebella were homogenised on ice in 5 volumes of ice-cold 50 mM Tris-HCI buffer (pH 7.4) and diluted in 30 volumes of the same buffer. After centrifugation at 40,000 x g for 20 min at 4°C, the pellets were resuspended in 30 volumes of Tris-HCI buffer and incubated at 37 °C for 30 min (rat brain) or for 10 min (guinea pig brain). The centrifugation step was repeated and the final pellets were resuspended in 5 volumes of 50 mM Tris-HCI buffer (pH 7.4) containing 0.32 M sucrose to give a protein concentration of 4 - 6 mg/ml. Protein concentration was determined by the method of Bradford using bovine serum albumin as standard.
(§3) Binding experiments were performed in 50 mM Tris-HCI buffer (pH 7.4) in a final volume of 1 ml containing 0.3 - 0.5 mg protein and different concentrations of the compounds. […] Guinea pig brain membranes were incubated with [^3H]U69,593 (30 min, 30 °C). Non-specific binding was determined in the presence of 10 µM unlabeled naloxone. […] Inhibition constant (Ki) values were calculated from competition binding curves using GraphPad Prism (San Diego, CA, USA) program. The values are expressed as the mean ± S.E.M of 2-4 independent experiments, each performed in duplicate.
(§4) The morphinan-6-one compounds of the present invention were evaluated in in vitro receptor binding assays for their interaction abilities with µ, δ and k opioid receptors. […] The affinities of the compounds at k opioid receptors were determined by displacement of [^3H]U69,593 using guinea pig brain membranes.

k opioid receptors = target: T3, k opioid receptors (Cavia porcellus, UniProt P41144); experiment: Opioid receptor binding assay, [3H]U69,593, guinea pig brain membranes
T3 construct: Membrane fractions were prepared from Sprague-Dawley rat or guinea pig brains; from tissue; host or cells: guinea pig brain (without cerebella) membranes
T3 sequence (P41144 whole entry): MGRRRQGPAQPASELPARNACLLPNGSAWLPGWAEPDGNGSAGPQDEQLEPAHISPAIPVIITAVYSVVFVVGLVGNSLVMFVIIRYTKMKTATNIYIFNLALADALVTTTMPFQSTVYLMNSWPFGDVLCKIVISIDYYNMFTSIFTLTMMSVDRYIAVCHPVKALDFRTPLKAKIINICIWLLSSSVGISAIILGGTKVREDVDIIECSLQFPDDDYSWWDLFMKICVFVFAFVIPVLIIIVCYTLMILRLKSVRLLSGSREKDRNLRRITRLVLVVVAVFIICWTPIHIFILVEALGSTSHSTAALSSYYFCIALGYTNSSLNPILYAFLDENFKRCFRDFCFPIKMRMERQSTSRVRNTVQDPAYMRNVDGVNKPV
Description: as §2, §3, §4

[4] = target: σ receptors labelled by [^3H]DTG (σ1 + σ2); experiment: Sigma receptor binding assay, [3H]DTG; conditions: read-out: IC50 ± SEM [^3H]DTG (σ1 + σ2); guinea pig brain membranes; compounds 1-5 tested up to 10 µM
Description: as §1

δ opioid receptors = target: T4, δ opioid receptors (Rattus norvegicus, UniProt P33533); experiment: Opioid receptor binding assay, [3H][Ile5,6]deltorphin II, rat brain membranes; design: species or system Sprague-Dawley rat
T4 construct: Membrane fractions were prepared from Sprague-Dawley rat or guinea pig brains; from tissue; host or cells: Sprague-Dawley rat brain (without cerebella) membranes
T4 sequence (P33533 whole entry): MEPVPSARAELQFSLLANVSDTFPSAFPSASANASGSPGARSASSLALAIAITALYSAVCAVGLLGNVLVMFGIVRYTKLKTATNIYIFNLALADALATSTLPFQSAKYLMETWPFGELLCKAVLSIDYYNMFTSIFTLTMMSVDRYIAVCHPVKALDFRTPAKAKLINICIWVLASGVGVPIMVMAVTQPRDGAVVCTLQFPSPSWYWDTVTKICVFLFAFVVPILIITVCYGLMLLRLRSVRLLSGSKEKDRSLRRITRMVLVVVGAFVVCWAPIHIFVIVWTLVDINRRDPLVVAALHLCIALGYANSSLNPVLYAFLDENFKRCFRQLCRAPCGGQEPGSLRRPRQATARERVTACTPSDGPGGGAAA
Description: as §2, §3, §4

[5] = target: T5, electric eel AChE (EC 3.1.1.7) (Electrophorus electricus, UniProt O42275); experiment: Spectrophotometric assay for AChE inhibitory activity (modified Ellman's method); type: biochemical
T5 construct: purchased Sigma-Aldrich, Germany
T5 sequence (O42275 24-633): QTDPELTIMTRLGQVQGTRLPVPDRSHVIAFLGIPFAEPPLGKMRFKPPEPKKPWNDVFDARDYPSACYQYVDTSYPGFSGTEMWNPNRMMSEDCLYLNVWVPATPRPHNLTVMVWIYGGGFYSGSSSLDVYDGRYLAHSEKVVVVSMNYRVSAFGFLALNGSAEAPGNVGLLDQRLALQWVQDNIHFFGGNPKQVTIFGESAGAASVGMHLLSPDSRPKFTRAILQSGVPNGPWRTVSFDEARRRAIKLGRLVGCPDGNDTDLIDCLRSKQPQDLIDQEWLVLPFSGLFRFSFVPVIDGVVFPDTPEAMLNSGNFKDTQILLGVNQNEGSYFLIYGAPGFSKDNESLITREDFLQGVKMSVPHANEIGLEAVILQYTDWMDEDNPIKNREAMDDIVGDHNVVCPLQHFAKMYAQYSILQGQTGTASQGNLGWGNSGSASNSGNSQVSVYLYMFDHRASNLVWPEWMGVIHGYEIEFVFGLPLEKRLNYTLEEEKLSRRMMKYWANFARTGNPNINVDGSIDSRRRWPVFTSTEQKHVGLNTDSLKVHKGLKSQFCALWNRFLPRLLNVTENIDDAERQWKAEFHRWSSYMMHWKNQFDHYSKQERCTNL

[6] = system: frontal cortex synaptosomes; experiment: ACh release from synaptosomes (15 mM K+-evoked [3H]-ACh release, superfusion); type: cell-based, male Sprague Dawley rats; conditions: 0.1 to 100 µM
Description: Preparation of synaptosomes: synaptosomes were prepared from brain frontal cortex of male Sprague Dawley rats (4 months old). The frontal cortex was rapidly dissected on ice and homogenized in 40 volumes of 0.32 M sucrose buffered at pH 7.4 with 0.01 M sodium phosphate. The homogenate was centrifuged at 1,000 g for 5 min. The crude synaptosomal pellet was obtained by centrifugation of the supernatant at 15,000 g for 20 min and was resuspended in 5 ml basal medium (125 mM Nacl, 3 mM KCI, 1.2 mM MgS04, 1.2 mM CaCl2, 1.0 mM NaH2PO4, 22 mM NaHCO3 and 10 mM glucose) which had been gassed with 95% O2 - 5% CO2 at 37 °C, pH 7.2 - 7.4.
Superfusion protocol: The synaptosomal suspension was incubated with [^3H]-choline (0.03 µM, 17.5x10^6 Bq/g) for 15 min at 37 °C. Then, the suspension was diluted (1:8) and aliquots were applied on filters in a continuous superfusion system with parallel chambers maintained at 37 °C. The media used for superfusion were basal medium and 15 mM K^+-containing stimulation medium. Both media were supplemented with ACh (1 µM) to facilitate the effectiveness of an allosteric potentiating ligand at the nicotine receptor and with atropine (0.1 µM) to block M2 presynaptic receptors. Synaptosomes were superfused with basal medium for 30 min to reach a constant outflow of [^3H]-ACh. Under these experimental conditions, the radioactivity released consisted largely of newly synthesized [^3H]-ACh. The K^+-stimulated release of [^3H]-ACh was determined in 2 subsequently collected fractions: 6 min basal release (superfusion with basal medium) and 6 min K^+-evoked release (superfusion for 1.5 min with 15 mM K^+-containing medium followed by […] basal medium). The test compounds galantamine, 4 and 2 were present in the superfusion medium concomitantly with 15 mM K^+ (for 1.5 min). Basal release of [^3H]-ACh (continuous superfusion with basal medium) was determined by collection of a 6 min sample followed by four subsequent 2 min samples. Aliquots of samples were mixed with scintillation liquid and the radioactivity quantified with a scintillation counter. The radioactivity bound to the filters was also measured.
Statistical analysis: The amount of [^3H]-ACh released in each sample was calculated as fraction of total synaptosomal tritium at the start of the respective collection period (tritium in the sample / sum of tritium in the respective fractions and in the synaptosomes on the filter). K^+-evoked release was expressed as percentage of basal release rate. Each n=1 represents the mean of an experiment with one synaptosomal preparation in at least 3 superfusion chambers. Statistical significance of group variances was calculated by one way ANOVA followed by Bonferroni's test.

C57BL/6N female mice [7] = experiment: Object recognition task; conditions: for object recognition (memory): normal mice; for effect on scopolamine-induced impairment of object recognition: scopolamine-pretreated mice, dose not given
K receptor = target: T6, K receptor (Cavia porcellus, UniProt P41144); type: biochemical, guinea pig
T6 construct: Membrane fractions were prepared from Sprague-Dawley rat or guinea pig brains; from tissue; host or cells: guinea pig brain (without cerebella) membranes
T6 sequence (P41144 whole entry): as the sequence (P41144 whole entry) above

δ receptor = target: T7, δ receptor (Rattus norvegicus, UniProt P33533); experiment: [35S]GTPγS functional assay, rat brain membranes, δ receptor; type: biochemical, Sprague-Dawley rat
T7 construct: Membrane fractions were prepared from Sprague-Dawley rat or guinea pig brains; from tissue; host or cells: Sprague-Dawley rat brain (without cerebella) membranes
T7 sequence (P33533 whole entry): as the sequence (P33533 whole entry) above
Description: (§5) Membrane fractions were prepared from Sprague-Dawley rat or guinea pig brains as described above. To determine binding of [^35S]GTPyS, rat or guinea pig brain membranes (10 µg of protein) were incubated for 60 min at 30 °C in Tris-EGTA buffer (50 mM Tris-HCl buffer, 3 mM MgCl2, 1 mM EGTA, […], pH 7.4) containing 30 µM GDP, 0.05 nM [^35S]GTPyS and appropriate concentrations of the respective compounds according to the present invention in a final volume of 1 ml. The reaction was terminated by vacuum filtration through Whatman GF/B glass fibre filters. Filters were washed three times with ice-cold 50 mM Tris-HCI buffer (pH 7.4) and the bound radioactivity was measured by liquid scintillation counting (Beckman Coulter™ LS6500). Basal activity was determined by subtracting the non-specific binding (measured in the presence of 100 µM unlabelled GTPyS) from the total binding (measured in the absence of the compound).
(§6) Stimulation produced by the compound is given as percentage of the basal activity (given as 100%). Functional data, EC50 (nM; half maximal effective concentration) and maximal stimulation Emax (% stimulation over basal level; maximal effective concentration), were calculated by using nonlinear regression analysis and sigmoidal curve fitting GraphPad Prism (San Diego, CA, USA) program. The values are expressed as the mean ± S.E.M of at least 3 independent experiments, each performed in triplicate. Statistical analysis was carried out using SPSS software (SPSS Inc., Chicago, lL, USA) and the Student T-test was used to compare different assay conditions. A ρ value < 0.05 was considered statistically significant.

C57BL/6N female mice [8] = experiment: Open field (locomotor activity); type: in vivo
Text: Each mouse was used only once. […] . […] Thereafter it was replaced by the obturator.
The open field consisted of a transparent plastic box with white floor (41 x 41 x 41 cm) equipped with an automated activity monitoring system (True Scan, Coulbourn Instruments, Allentown, Pennsylvania, USA). The illumination at floor level was 150 lux. Mice were individually placed into the centre of the open field and their behaviours were tracked with the activity monitoring system. The time of locomotor activity, the overall distance travelled by the mice and the fraction of locomotor activity in the center area (center distance and center time) were monitored for 10 min. The arena was thoroughly cleaned with wet paper towels and dried at the end of each test.
Statistical analysis: All data from behavioural studies are shown as mean ± SEM. Statistical analysis was performed using the analysis of variance (ANOVA), followed by post hoc multiple comparisons Tukey-Kramer test, except comparison of alternation rates with the theoretical value of chance (defined as 50%) which was evaluated by Wilcoxon signed rank test. All statistical analyses were carried out by using the Graphpad Prism Program, version 4.0, Graphpad software, Inc.

µ opioid receptor [9] = target: T2, µ opioid receptor; experiment: [35S]GTPγS functional assay, rat brain membranes, µ receptor; type: biochemical, Sprague-Dawley rat; design: Membrane fractions were prepared from Sprague-Dawley rat or guinea pig brains; from tissue; host or cells: Sprague-Dawley rat brain (without cerebella) membranes; conditions: rat brain membranes
Description: as §5, §6

C57BL/6N female mice [10] = experiment: T-maze continuous alternation
[11] = scopolamine 0.033 µmol, compound 0.1 µmol i.c.v.

## O=CN1CC[C@]23c4c5cccc4OC2C(=O)CC[C@H]3[C@H]1C5 (stereo in doubt) [Compound 3, 4,5-epoxy-N-formylmorphinan-6-one]
[1]; 1 µmol i.c.v.
  effect on ACh in the superfusate (in words): increased ACh release
[1]; 2 µmol i.c.v.
  effect on ACh in the superfusate (in words): did not influence ACh up to 160 min followed by a decline thereafter
[1]; Dose 1 µmol i.c.v.
  0AUC120 min (% increase x min) Mean ± SEM: 410 ± 227 % increase x min
  Increase in ACh release (Peak increase as % of basal output): 123 ± 91 %
[1]; Dose 2 µmol i.c.v.
  0AUC120 min (% increase x min) Mean ± SEM: 160 ± 140 % increase x min
  Increase in ACh release (Peak increase as % of basal output): 75 ± 73%
[2]
  IC50: > 10 µM
µ opioid receptor [3]
  Ki: > 10 µM
µ opioid receptor [3]; read-out: Opioid binding affinities Ki µ receptor, [3H]DAMGO, rat brain membranes
  Ki: > 10 µM
K opioid receptors
  Ki: > 10 µM
K opioid receptors; read-out: Opioid binding affinities Ki κ receptor, [3H]U69,593, guinea pig brain membranes
  Ki: > 10 µM
[4]
  IC50: > 10 µM
δ opioid receptors
  Ki: > 10 µM
δ opioid receptors; read-out: Opioid binding affinities Ki δ receptor, [3H][Ile5,6]deltorphin II, rat brain membranes
  Ki: > 10 µM
[5]
  IC50: 60.3 µM
[6]
  effect on K+-evoked ACh release in frontal-cortex synaptosomes: did not influence ACh release
C57BL/6N female mice [7]; 0.02 µmol i.c.v.
  object recognition (memory): did not influence the object recognition
C57BL/6N female mice [7]
  effect on scopolamine-induced impairment of object recognition: ineffective

## C=CCN1CC[C@]23CC(=O)CC[C@@]2(OC)[C@H]1Cc1cccc(OC)c13 [Compound 5, 4,14-dimethoxy-N-allyl-morphinan-6-one]
[1]; 0.5 µmol i.c.v.
  effect on ACh in the superfusate (in words): did not increase brain ACh
[1]; 1 µmol i.c.v.
  effect on ACh in the superfusate (in words): short peak increase
[1]; Dose 1 µmol i.c.v.
  0AUC120 min (% increase x min) Mean ± SEM: 158 ± 111 % increase x min
  Increase in ACh release (Peak increase as % of basal output): 51 ± 43%
[2]
  IC50: > 10 µM
K receptor
  effect on [35S]GTPγS binding stimulated by U69,593: no significant effect
K receptor; 10 µM each, guinea pig brain membranes
  [35S]GTPγS binding on co-incubation with Nor-BNI versus antagonist alone: did not produce any significant increase
K receptor; guinea pig brain membranes, compared with U69,593
  [35S]GTPγS binding in the presence of the compound alone: no increase
µ opioid receptor [3]
  Ki: 0.0672 µM
  binding to opioid receptor µ (in words): some µ opioid receptor affinity
µ opioid receptor [3]; from binding, Table 3
  selectivity among opioid receptor types: moderate selectivity for the µ type
K opioid receptors
  Ki: 0.328 µM
[4]
  IC50: > 10 µM
δ receptor; 10 µM each
  [35S]GTPγS binding on co-incubation with naltrindole versus antagonist alone: did not produce any significant increase
δ receptor; compound 10 µM, SNC 80 10 µM
  effect on [35S]GTPγS binding stimulated by SNC 80: did not cause any significant changes
δ opioid receptors
  Ki: 1.25 µM
[5]; 96-well microplate, 1% DMSO, read-out: AChE inhibitory activity IC50
  IC50: 81.9 µM
C57BL/6N female mice [8]; 0.1 µmol i.c.v., 10 min
  general locomotion in the open field (move distance, move time): did not influence
C57BL/6N female mice [8]; dose not given
  fraction of locomotor activity in the central zone: did not influence
µ opioid receptor [9]; 10 µM each
  [35S]GTPγS binding on co-incubation with cyprodime versus antagonist alone: did not produce any significant increase
µ opioid receptor [9]; compound 10 µM, DAMGO 10 µM
  effect on [35S]GTPγS binding stimulated by DAMGO: significantly decreased
µ opioid receptor [9]; compared with DAMGO
  [35S]GTPγS binding in the presence of the compound alone: no increase
C57BL/6N female mice [7]; 0.1 µmol i.c.v.
  object recognition (memory): increased the exploration ratio
C57BL/6N female mice [7]
  effect on scopolamine-induced impairment of object recognition: ineffective
C57BL/6N female mice [10]; normal mice, 0.1 µmol i.c.v.
  spontaneous alternation rate: did not influence alternation
C57BL/6N female mice [10]; [11]
  effect on scopolamine-enhanced running time: further increased
  effect on scopolamine-impaired alternation: had no effect
